Laboratory results reported in ChEMBL document CHEMBL4229329, “Design of Small-Molecule Active-Site Inhibitors of the S1A Family Proteases as Procoagulant and Anticoagulant Drugs” (J Med Chem, 2018).

Experiments:
Homo sapiens [1] = organism: Homo sapiens; experiment: Selectivity ratio of Ki for human PKK to Ki for human factor 11a
[2] = Apparent permeability across apical to basolateral side in human Caco2 cells at 10 umol/l measured at 45 to 120 mins by LC-MS/MS analysis; assay type: ADME, cell-based; conditions: Caco-2
[3] = Apparent permeability across apical to basolateral side in human Caco2 cells at 750 uM measured over 90 mins by HPLC-MS analysis; assay type: ADME, cell-based; conditions: Caco-2
Homo sapiens [4] = organism: Homo sapiens; experiment: Selectivity ratio of Ki for recombinant human factor 9a to Ki for human factor 10a
[5] = Efflux ratio of apparent permeability across basolateral to apical over apical to basolateral side in human Caco2 cells; assay type: ADME, cell-based; conditions: Caco-2
Plasminogen = Plasminogen (Homo sapiens, UniProt P00747); experiment: Competitive inhibition of human plasmin using chromozyme PL as substrate by UV-visible spectrophotometer
Coagulation factor X = Coagulation factor X (Homo sapiens, UniProt P00742); experiment: Competitive inhibition of human factor 10a using pefachrome F10a as substrate by UV-visible spectrophotometer
Coagulation factor XI = Coagulation factor XI (Homo sapiens, UniProt P03951); experiment: Competitive inhibition of human factor 11a using pefachrome PCa as substrate by UV-visible spectrophotometer
Plasma kallikrein = Plasma kallikrein (Homo sapiens, UniProt P03952); experiment: Competitive inhibition of human plasma kallikrein using S2302 as substrate by UV-visible spectrophotometer
[6] = Apparent permeability across human Caco2 cells measured every 30 mins for 2 hrs; assay type: ADME, cell-based; conditions: Caco-2
[7] = Oral bioavailability in human at 57 to 200 mg; assay type: ADME, organism-based; conditions: in vivo
[8] = Oral bioavailability in human at 10 mg; assay type: ADME, organism-based; conditions: in vivo

## O=C(N[C@@H](Cc1ccccc1)C(=O)NCc1cc(=O)[nH]c2ccc(Cl)cc12)c1ccc2[nH]c(=O)cc(O)c2c1
Homo sapiens [1]
  Ratio Ki: 10
[2]
  Papp A→B at 10 µM: 0.28 ×10⁻⁶ cm/s

## CCOC(=O)CN[C@@H](C(=O)N1CC[C@H]1C(=O)NCc1ccc(/C(N)=N\O)cc1)C1CCCCC1 [XIMELAGATRAN]
[3]
  Papp A→B at 1.5 h, 750 µM: 2.4 ×10⁻⁶ cm/s

## N=C(N)c1cccc(-n2nc(C(F)(F)F)cc2C(=O)Nc2ccc(-n3cnc4ccccc43)cc2F)c1
Homo sapiens [4]
  Ratio Ki: 130

## CCCCCCOC(=O)NC(=N)c1ccc(NCc2nc3cc(C(=O)N(CCC(=O)OCC)c4ccccn4)ccc3n2C)cc1 [DABIGATRAN ETEXILATE]
[5]
  efflux ratio: 13.8

## N=C(N)c1ccc(CC(=O)[C@H](Cc2cccc(CN)c2)NC(=O)[C@@H](CCCc2ccccc2)NS(=O)(=O)Cc2cccc(C(=O)O)c2)cc1
Plasminogen
  Ki: 2.2 nM
Coagulation factor X
  Ki: 45 nM
Coagulation factor XI
  Ki: 18 nM
Plasma kallikrein
  Ki: 0.02 nM

## N=C(N)c1ccc(CNC(=O)[C@@H]2CCN2C(=O)[C@H](NCC(=O)O)C2CCCCC2)cc1
[6]
  Papp at 2 h: 0.03 ×10⁻⁶ cm/s
[7]
  bioavailability: 3 to 7%

## O=C(NC[C@H]1CN(c2ccc(N3CCOCC3=O)cc2)C(=O)O1)c1ccc(Cl)s1 [RIVAROXABAN]
[8]
  bioavailability: > 80%
